“And” between values parts separate entries of the source, which are not always exact repeats. Equal entries are not always repeated.
What was measured:
ecFolD = molecular target: T1, ecFolD (Escherichia coli, UniProt P24186); assay: ecFolD cyclohydrolase (CYH) enzyme assay; type: biochemical, E. coli
T1 construct: His-tag (TEV-cleavable, vector pHis-TEV); made in house; host or cells: E. coli BL21 (DE3)
Experimental: (§1) (6R,S)-5,10-Methylene-5,6,7,8-tetrahydrofolic acid ((6R,S)-5,10-CH2-THF) calcium salt and (6R,S)-5,10-Methenyl-5,6,7,8-tetrahydrofolic acid ((6R,S)-5,10-CH=THF) chloride were purchased from Schircks Laboratories (Bauma, Switzerland) and used as substrates for FolD dehydrogenase and cyclohydrolase enzyme assays, respectively. Only the R-isomer, which accounts for 50% of (6R,S)-5,10-CH2-THF and (6R,S)-5,10-CH=THF, respectively, is used by the enzyme. (6R,S)-5,10-CH2-THF was dissolved in N2-spargeled basic buffer (50 mM Tris-HCl (pH 8.0), 100 mM β-mercaptoethanol) as described by Varshney et al.[25]. (6R,S)-5,10-CH=THF was dissolved in DMSO as a 100 mM stock solution.
Because FolD is a bifunctional enzyme, dehydrogenase and cyclohydrolase activities were determined for FolD enzyme kinetics, respectively. The dehydrogenase activity of FolD was assayed for its substrate 5,10-CH2-THF and cofactor NADP^+ (in the case of MTHFD2, NAD^+ was used as the cofactor) based on monitoring the formation of 5,10-CH=THF, while the cyclohydrolase activity of FolD was determined for its substrate 5,10-CH=THF by monitoring the hydrolysis of […]. The enzyme kinetics for the dehydrogenase activity of all FolDs except hsMTHFD1_DC were determined at 30 °C in 50 mM Tris-HCl (pH 7.5), 30 mM β-mercaptoethanol. The hsMTHFD1_DC dehydrogenase activity was measured in 25 mM MOPS (pH 7.3), 30 mM β-mercaptoethanol at 30 °C. […] To monitor the formation of 5,10-CH=THF, the absorbance of the reaction mixture was monitored at 350 nm in micro UV cuvettes (BRAND, Essex, Connecticut, USA). The concentration of 5,10-CH=THF produced in the reaction was determined using an extinction co-efficient of 0.0249 μM^−1 cm^−1. […] The consumption of 5,10-CH=THF was measured by recording the absorbance of the reactions at 355 nm using the TECAN Infinite 200 PRO equipped with a monochromator. […] The inhibition constants (K i) of carolacton on FolD were determined by measuring the apparent K m when adding certain amounts of carolacton to the enzyme reactions. […]

ecFolD K54N = molecular target: T2, ecFolD K54N (Escherichia coli, UniProt P24186, K54N); assay: ecFolD K54N mutant dehydrogenase (DH) enzyme assay; type: biochemical, E. coli
T2 construct: His-tag (TEV-cleavable, vector pHis-TEV); made in house; host or cells: E. coli BL21 (DE3)
Experimental: as §1
Because FolD is a bifunctional enzyme, dehydrogenase and cyclohydrolase activities were determined for FolD enzyme kinetics, respectively. The dehydrogenase activity of FolD was assayed for its substrate 5,10-CH2-THF and cofactor NADP^+ (in the case of MTHFD2, NAD^+ was used as the cofactor) based on monitoring the formation of 5,10-CH=THF, while the cyclohydrolase activity of FolD was determined for its substrate 5,10-CH=THF by monitoring the hydrolysis of […]. The enzyme kinetics for the dehydrogenase activity of all FolDs except hsMTHFD1_DC were determined at 30 °C in 50 mM Tris-HCl (pH 7.5), 30 mM β-mercaptoethanol. […]

U-937 = assay: Cytotoxicity screening, U-937 (alamar blue); type: cell-based, human; details: for EC50: 5 d, alamar blue
Experimental: Half maximal effective concentrations (EC50) on human cancer cell lines were determined as described elsewhere. Human cancer cell lines were maintained as recommended by the depositor (German Collection of Microorganisms and Cell Cultures, DSMZ) and were treated for 5 d with carolacton in serial dilution. The viability of adherent cell types, HCT-116 (ACC 581), KB-3.1 (ACC-158) and KB-V.1 (ACC-149) was assessed by the addition of MTT tetrazolium salt and absorbance measurement at 570 nm. Histiocytic lymphoma U-937 cells (ACC-5) were maintained in RPMI 1640 medium and transferred into folate-free medium prior to the assay. Cell viability was determined by measuring alamar blue fluorescence emission at 590 nm. The values were referenced and EC50 values were determined by sigmoidal curve fitting. The cell lines KB-3.1 and KB-V.1 are originally derived from HeLa, whereas the latter is an MDR subclone of KB-3.1. They were used to directly compare the activity of carolacton on an mdr1 overexpressing and a sensitive cell line.

SMILES: CO[C@H](CC(=O)O)[C@@H](C)C(=O)[C@H](C)/C=C(\C)[C@H]1OC(=O)[C@H](O)[C@H](O)/C=C/[C@H](C)CCC[C@@H]1C [carolacton]
- IC50 (ecFolD): 49.8 nM
- Ki (ecFolD; Ki (5,10-CH=THF), carolacton inhibition on CYH activity, competitive vs substrate 5,10-CH=THF, from apparent KM): 32 nM and 31.6 nM
- IC80 (ecFolD; read-out: IC80, carolacton inhibition on CYH activity): 180 nM
- sensitivity of residual DH activity to carolacton (ecFolD K54N): completely insensitive
- EC50 (U-937; Homo sapiens, U-937, 120 h, folate-depleted medium): 42000 nM
- EC50 (U-937; Homo sapiens, U-937, 120 h, normal culture medium (RPMI 1640)): > 100000 nM
- Maximum inhibition (U-937; folate-depleted medium): 65–75%
- EC50 (U-937; folate-depleted medium): 41700 ± 15200 nM

From publication PMC5688156, “The natural product carolacton inhibits folate-dependent C1 metabolism by targeting FolD/MTHFD” (Nature Communications, 2017)
